ChEMBL document CHEMBL1201862, “PubChem BioAssay data set” (2004)
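1) Cells in 96-well plates. 2) Compound, 48 h, 5 concentrations. 3) Linear interpolation between surrounding doses. 4) Unreached endpoint = highest concentration. GI50 marks 50% less growth.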 Active and inactive are the calls of the source. Cut-off read from the data, not from the text of the source: active = GI50 up to about 1.1 µM and inactive = higher.

How the values were obtained:
Assay in all cases: DTP human tumour cell line panel, 48 h
NCI/ADR-RES = tested on: NCI/ADR-RES
ACHN = tested on: ACHN
SW-620 = tested on: SW-620
NCI-H460 = tested on: NCI-H460
SF-268 = tested on: SF-268
SR = tested on: SR
LOX IMVI = tested on: LOX IMVI
KM12 = tested on: KM12
K562 = tested on: K562
OVCAR-3 = tested on: OVCAR-3
SK-OV-3 = tested on: SK-OV-3
A549 = tested on: A549
UO-31 = tested on: UO-31
SNB-19 = tested on: SNB-19
RXF 393 = tested on: RXF 393
SNB-75 = tested on: SNB-75
NCI-H522 = tested on: NCI-H522
HCC 2998 = tested on: HCC 2998
SF-295 = tested on: SF-295
OVCAR-8 = tested on: OVCAR-8

| SMILES | GI50 (NCI/ADR-RES) | GI50 (ACHN) | GI50 (SW-620) | GI50 (NCI-H460) | GI50 (SF-268) | GI50 (SR) | GI50 (LOX IMVI) | GI50 (KM12) | GI50 (K562) | GI50 (OVCAR-3) | GI50 (SK-OV-3) | GI50 (A549) | GI50 (UO-31) | GI50 (SNB-19) | GI50 (RXF 393) | GI50 (SNB-75) | GI50 (NCI-H522) | GI50 (HCC 2998) | GI50 (SF-295) | GI50 (OVCAR-8) |
| --- | --- | --- | --- | --- | --- | --- | --- | --- | --- | --- | --- | --- | --- | --- | --- | --- | --- | --- | --- | --- |
| CN(C)CCCNC(=O)c1cc(NC(=O)c2cc(NC(=O)c3cc(NC(=O)CCCn4ccc(CO)c4CO)cn3C)cn2C)cn1C | > 100 µM (inactive) | 15.8 µM (inactive) | 20.6 µM (inactive) | 12.5 µM (inactive) | 3.83 µM (inactive) | 6.5 µM (inactive) | 4.28 µM (inactive) | > 100 µM (inactive) | 3.78 µM (inactive) | 10.9 µM (inactive) | 1.06 µM (active) | 14.5 µM (inactive) | > 100 µM (inactive) | 2.9 µM (inactive) | 1.85 µM (inactive) | 5.01 µM (inactive) | 2.37 µM (inactive) | 63.5 µM (inactive) | – | – |
| Cc1nc2ccc(S(=O)(=O)O)cc2c(=O)n1-c1ccc(C(=O)NN2C(=O)C(Cl)C2c2cccs2)cc1 (configuration not stated) | > 100 µM (inactive) | > 100 µM (inactive) | > 100 µM (inactive) | > 100 µM (inactive) | 20.7 µM (inactive) | > 100 µM (inactive) | > 100 µM (inactive) | > 100 µM (inactive) | > 100 µM (inactive) | > 100 µM (inactive) | > 100 µM (inactive) | > 100 µM (inactive) | > 100 µM (inactive) | > 100 µM (inactive) | > 100 µM (inactive) | 50.4 µM (inactive) | > 100 µM (inactive) | > 100 µM (inactive) | > 100 µM (inactive) | > 100 µM (inactive) |
| CC(C)=CC1C(C(=O)OCc2cc3c(cc2Cl)OCO3)C1(C)C (configuration not stated) | 42.8 µM (inactive) | 28.7 µM (inactive) | 55.7 µM (inactive) | 24.4 µM (inactive) | 39.7 µM (inactive) | 15.7 µM (inactive) | 16.6 µM (inactive) | 27.7 µM (inactive) | 20.1 µM (inactive) | 20.6 µM (inactive) | – | 31.5 µM (inactive) | 46.1 µM (inactive) | > 100 µM (inactive) | 44.1 µM (inactive) | 26.9 µM (inactive) | 15.1 µM (inactive) | 17 µM (inactive) | 26.3 µM (inactive) | 44.3 µM (inactive) |
| O=C(O)c1cc2ccccc2c(/N=N/c2ccc(S(=O)(=O)O)cc2)c1O | > 100 µM (inactive) | > 100 µM (inactive) | > 100 µM (inactive) | > 100 µM (inactive) | > 100 µM (inactive) | > 100 µM (inactive) | – | > 100 µM (inactive) | > 100 µM (inactive) | > 100 µM (inactive) | > 100 µM (inactive) | > 100 µM (inactive) | 60.3 µM (inactive) | 0.0264 µM (active) | > 100 µM (inactive) | > 100 µM (inactive) | > 100 µM (inactive) | > 100 µM (inactive) | > 100 µM (inactive) | > 100 µM (inactive) |
| Cc1ccc(S(=O)(=O)n2cc(C=O)c(-c3cn(S(=O)(=O)c4ccc(C)cc4)cc3-c3cn(S(=O)(=O)c4ccc(C)cc4)cc3C=O)c2)cc1 | > 100 µM (inactive) | – | 45.1 µM (inactive) | 29.2 µM (inactive) | > 100 µM (inactive) | 13.6 µM (inactive) | 21.9 µM (inactive) | 50.7 µM (inactive) | 24.3 µM (inactive) | 78.9 µM (inactive) | > 100 µM (inactive) | 72.4 µM (inactive) | 52.6 µM (inactive) | 50.2 µM (inactive) | 29.5 µM (inactive) | 29.6 µM (inactive) | 26.9 µM (inactive) | > 100 µM (inactive) | 42.9 µM (inactive) | 37.2 µM (inactive) |
| CCOC(=O)CC(N1CC1)N1CC1 | > 10 µM (inactive) | > 10 µM (inactive) | > 10 µM (inactive) | > 10 µM (inactive) | > 10 µM (inactive) | > 10 µM (inactive) | > 10 µM (inactive) | > 10 µM (inactive) | > 10 µM (inactive) | > 10 µM (inactive) | > 10 µM (inactive) | > 10 µM (inactive) | > 10 µM (inactive) | > 10 µM (inactive) | > 10 µM (inactive) | > 10 µM (inactive) | > 10 µM (inactive) | > 10 µM (inactive) | > 10 µM (inactive) | – |
| CSC1=C(C#N)C(=S)N=C(N)C1C(=O)Nc1ccc(C)cc1 (configuration not stated) | > 100 µM (inactive) | – | > 100 µM (inactive) | > 100 µM (inactive) | > 100 µM (inactive) | > 100 µM (inactive) | > 100 µM (inactive) | > 100 µM (inactive) | > 100 µM (inactive) | > 100 µM (inactive) | > 100 µM (inactive) | > 100 µM (inactive) | 64 µM (inactive) | > 100 µM (inactive) | > 100 µM (inactive) | > 100 µM (inactive) | 32 µM (inactive) | > 100 µM (inactive) | – | > 100 µM (inactive) |
